Measurements: patent US12403184B2, “Compositions and methods for treating neurodegenerative disroders” (priority 2018, dated 2025)
Where no end group is shown, it is not given here.

Assays:
ATAD3A = molecular target: T1, ATAD3A (Mus musculus, UniProt Q925I1); test: ATAD3A dimerization by western blot, Neuro2A cells; type: cell-based; conditions: Neuro2A cells exposed to 3-NP (5 mM, 7 hours), DA1 1 μM overnight
T1 construct: endogenous in cells; host or cells: Neuro2A cells
T1 sequence (Q925I1 1-591): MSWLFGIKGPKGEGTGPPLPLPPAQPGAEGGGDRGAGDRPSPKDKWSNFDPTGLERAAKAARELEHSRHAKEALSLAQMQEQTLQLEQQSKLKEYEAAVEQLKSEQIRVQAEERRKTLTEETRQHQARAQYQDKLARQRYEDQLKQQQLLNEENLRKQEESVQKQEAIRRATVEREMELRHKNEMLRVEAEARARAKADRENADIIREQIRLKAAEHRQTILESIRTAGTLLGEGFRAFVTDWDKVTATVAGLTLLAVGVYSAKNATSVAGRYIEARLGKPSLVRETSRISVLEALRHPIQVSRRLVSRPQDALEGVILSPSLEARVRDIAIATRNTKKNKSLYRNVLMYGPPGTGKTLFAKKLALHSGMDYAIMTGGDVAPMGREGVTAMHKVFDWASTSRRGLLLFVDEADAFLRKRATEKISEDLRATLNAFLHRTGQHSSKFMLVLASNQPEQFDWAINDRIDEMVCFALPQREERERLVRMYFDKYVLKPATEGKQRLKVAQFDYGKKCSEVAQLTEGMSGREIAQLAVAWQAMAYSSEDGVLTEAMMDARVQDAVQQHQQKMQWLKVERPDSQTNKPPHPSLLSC
Description: To analyze dimerization of ATAD3A under non-reducing conditions, the cells or tissues were harvested and lysed with total lysates buffer. An equal amount of proteins was subject to 8% SDS-PAGE analysis in the presence or absence of β-mercaptoethanol (β-ME). For in vitro BMH crosslinking, the cell lysates were incubated with 1 mM BMH at r.t. for up to 25 min and quenched with 0.1% β-ME, followed by SDS-PAGE analysis. For in-vivo crosslinking, the cells were treated with cell-permeable crosslinker BMH (1 mM) for 20 min at 37° C. After crosslinking, the cells were quenched in PBS with 0.1% β-ME. For DSP crosslinking, the cells were treated with cell-permeable crosslinker for 5 min at 37° C., followed by quenching and washing with 10 mM Glycine in PBS. For formaldehyde (FA) crosslinking, the cells were incubated with PBS buffer containing 1% FA for 20 min at r.t., and the crosslinking reaction was terminated by washing in PBS containing 100 mM glycine. The cells were then lysed and subject to 8% SDS-PAGE analysis. For DTSSP crosslinking of proteins in mitochondrial fractions, isolated mitochondria samples were suspended in the mitochondrial lysis buffer (250 mM sucrose, 20 mM HEPES-NaOH, pH 7.5, 10 mM KCl, 1.5 mM MgCl2, 1 mM EDTA, 1 mM EGTA and protease inhibitor). An equal amount of crude mitochondria was incubated at 30° C. in the presence of 0.5 mM DTSSP. […]

Drp1 = Drp1 mitochondrial level and Drp1 polymerization by western blot in HD mouse striatal cells; type: cell-based
Description: Cells were washed with cold phosphate-buffered saline (PBS) and incubated on ice in mitochondrial lysis buffer (250 mM sucrose, 20 mM HEPES-NaOH, pH 7.5, 10 mM KCl, 1.5 mM MgCl2, 1 mM EDTA, 1 mM EGTA, protease inhibitor cocktail, and phosphatase inhibitor cocktail) for 30 min. The cells were scraped and then disrupted 15 times by repeated aspiration through a 25-gauge needle. Mouse brains were minced and homogenized in mitochondrial lysis buffer to release mitochondria. The homogenates were spun at 800×g for 10 min at 4° C., and the resulting supernatants were spun at 12,000×g for 20 min at 4° C. The pellets were washed with lysis buffer and spun at 12,000×g again for 20 min at 4° C. The final pellets were suspended in lysis buffer containing 1% Triton X-100 and were mitochondrial-rich lysate fractions. The mitochondrial protein voltage-dependent anion channel (VDAC) was used as a loading control.
Protein concentration was measured by protein assay dye reagents (Bio-rad). The protein was resuspended in Laemmli buffer, loaded on SDS-PAGE, and transferred onto nitrocellulose membranes. Membranes were probed with the indicated antibodies, followed by visualization with ECL. Representative blots have been cropped for presentation.

TFAM and mtDNA LSP = test: TFAM-mtDNA binding assay (biotin-streptavidin pull down); type: cell-based, mouse; conditions: HdhQ111 cells, relative to TAT
Description: Total lysates were isolated from cells with the indicated treatments, and then incubated with biotinylated LSP DNA probe (Biotin-LSP) or LSP (control) overnight at 4° C. Then streptavidin agarose beads (Thermo Fisher Scientific) were added for 1 h at 4° C. After incubation, the biotinstreptavidin complex was washed 3-5 times (1 ml/time) at 4° C. and subject to western blot analysis. To validate the LSP binding specificity to TFAM, 10 times (molar ratio) of non-labeled LSP was pre-incubated with an equal amount of lysate for 2 h prior to addition of the biotin-LSP probe.

YAC128 mice = test: Locomotion activity in YAC128 mice; type: in vivo, mouse; conditions: 1 mg/kg/day from 3 to 12 months, effect from 6 until 12 months of age
Description: YAC128 [FVB-Tg(YAC128)53Hay/J, JAX stock number: 004938] breeders (FVB/N genetic background) were purchased from Jackson Laboratories. The YAC128 mice contain a full-length human huntingtin gene modified with a 128 CAG repeat expansion in exon 1. The mice were mated, bred, and genotyped in the animal facility of Case Western Reserve University. Male mice at the ages of 2, 3, 6, 9, and 12 months were used in the study.
Systemic peptide treatment in HD mice. All randomization and peptide treatments were prepared by an experimenter not associated with behavioral and neuropathology analysis. Male R6/2 mice (Tg) and their age-matched wild-type littermates (Wt) (6-week-old) were implanted with a 28-day osmotic pump (Alzet, Cupertino CA, Model 2004) containing TAT control peptide or DA1 peptide, which delivered peptides at a rate of 1 mg/kg/day. Male YAC128 mice (Tg) and their age-matched wild-type littermates (WT) were treated with TAT control peptide or DA1 peptide (1 mg/kg/day) by Alzet osmotic pump starting from the age of 3 months. The pump was replaced once every month.
Gross locomotor activity was assessed in R6/2 mice and age-matched wild-type littermates at the ages of 12 weeks, and in YAC128 mice and age-matched wildtype littermates at the ages of 2, 3, 6, 9, and 12 months. […] Distance moved, horizontal and vertical activities were recorded. […]

YGRKKRRQRRRGGEDKRKT-NH2 [DA1, YGRKKRRQRRR-GG-EDKRKT-NH2]
dimerization of ATAD3A (ATAD3A): abolished | Drp1 polymerization (Drp1; HD mouse striatal cells): abrogated | Drp1 translocation to the mitochondria (Drp1; HD mouse striatal cells, 1 μM/day for 4 days): abrogated | inhibitory effect on Drp1 tetramer formation (Drp1; upon ATAD3A knockdown): abolished upon ATAD3A knockdown | binding of TFAM and mtDNA (TFAM and mtDNA LSP): restored | general movement activity (YAC128 mice): improved
